Reference: patent US9273057B2 (Bristol-Myers Squibb Company, priority 2012, dated 2016)
Where a name gives a salt, the structure may show the parent alone.

Target: CK2A1 (CK2α/β) (Homo sapiens, UniProt P68400)
Test: CK2 kinase assay, CK2A1 (CK2α/β)
Type: biochemical
Settings: Table A; read-out: CK2A1 (CK2α/β) (IC50)

Chain of CK2A1 (CK2α/β) (P68400 whole entry, species assumed): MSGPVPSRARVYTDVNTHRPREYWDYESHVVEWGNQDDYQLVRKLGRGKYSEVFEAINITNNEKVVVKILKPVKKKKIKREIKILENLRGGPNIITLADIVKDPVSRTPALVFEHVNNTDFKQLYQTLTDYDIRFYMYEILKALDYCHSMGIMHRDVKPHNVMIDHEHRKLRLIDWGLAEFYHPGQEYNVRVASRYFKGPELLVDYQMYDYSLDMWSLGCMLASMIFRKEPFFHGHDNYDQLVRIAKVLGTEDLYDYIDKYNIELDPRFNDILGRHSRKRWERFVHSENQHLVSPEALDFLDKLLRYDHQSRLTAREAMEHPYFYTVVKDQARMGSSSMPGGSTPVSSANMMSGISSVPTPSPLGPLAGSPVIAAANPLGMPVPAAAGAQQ
Chain of CK2A1 (CK2α/β) (P67870 whole entry partner, species assumed): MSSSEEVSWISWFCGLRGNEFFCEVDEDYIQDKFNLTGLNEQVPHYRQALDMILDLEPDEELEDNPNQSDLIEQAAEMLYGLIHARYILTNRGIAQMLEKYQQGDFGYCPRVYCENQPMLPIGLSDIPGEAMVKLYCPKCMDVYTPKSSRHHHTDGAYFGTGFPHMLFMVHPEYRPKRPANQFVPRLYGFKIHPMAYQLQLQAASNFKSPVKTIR

## CCNc1nc(Nc2cc(C#N)cc(N3CC[C@@H](NC[C@H](C)O)[C@H](O)C3)c2Cl)nn2c(C#N)cnc12 [Example 377, 2-((2-chloro-5-cyano-3-((3R,4R)-3-hydroxy-4-(((S)-2-hydroxypropyl)amino)piperidin-1-yl)phenyl)amino)-4-(ethylamino)imidazo[2,1-f][1,2,4]triazine-7-carbonitrile]
  IC50: 0.61 nM

## N#CCC1(N2CCC(c3cc(C#N)cc(Nc4nc(NC5CC5)c5ncc(C#N)n5n4)c3Cl)CC2)COC1 [Example 378, 2-((2-chloro-5-cyano-3-(1-(3-(cyanomethyl)oxetan-3-yl)piperidin-4-yl)phenyl)amino)-4-(cyclopropylamino)imidazo[2,1-f][1,2,4]triazine-7-carbonitrile]
  IC50: 0.81 nM

## C=CC1(N2CCC(c3cc(C#N)cc(Nc4nc(NC5CC5)c5ncc(C#N)n5n4)c3Cl)CC2)COC1 [Example 379, 2-((2-chloro-5-cyano-3-(1-(3-vinyloxetan-3-yl)piperidin-4-yl)phenyl)amino)-4-(cyclopropylamino)imidazo[2,1-f][1,2,4]triazine-7-carbonitrile]
  IC50: 2.61 nM

## CCNc1nc(Nc2cc(C#N)cc(N3CC[C@@H](NC(=O)OC)[C@H](O)C3)c2F)nn2c(C#N)cnc12 [Example 381, methyl ((3R,4R)-1-(5-cyano-3-((7-cyano-4-(ethylamino)imidazo[2,1-f][1,2,4]triazin-2-yl)amino)-2-fluorophenyl)-3-hydroxypiperidin-4-yl)carbamate]
  IC50: 0.53 nM

## CCNc1nc(Nc2cc(C#N)cc(N3CC(N4CCN(C)CC4)C3)c2F)nn2c(C#N)cnc12 [Example 383, 2-((5-cyano-2-fluoro-3-(3-(4-methylpiperazin-1-yl)azetidin-1-yl)phenyl)amino)-4-(ethylamino)imidazo[2,1-f][1,2,4]triazine-7-carbonitrile]
  IC50: 0.77 nM

## N#Cc1cc(Nc2nc(NC3CC3)c3ncc(C#N)n3n2)c(F)c(C2CCN(C3COC3)CC2)c1 [Example 384, 2-((5-cyano-2-fluoro-3-(1-(oxetan-3-yl)piperidin-4-yl)phenyl)amino)-4-(cyclopropylamino)imidazo[2,1-f][1,2,4]triazine-7-carbonitrile]
  IC50: 0.43 nM

## COC(=O)Nc1cc(Nc2nc(NC3CC3)c3ncc(C#N)n3n2)c(F)c(N2CCN(C)CC2)c1 [Example 385, methyl (3-((7-cyano-4-(cyclopropylamino)imidazo[2,1-f][1,2,4]triazin-2-yl)amino)-4-fluoro-5-(4-methylpiperazin-1-yl)phenyl)carbamate]
  IC50: 2.22 nM

## CCNc1nc(Nc2cc(NC(=O)OC)cc(N3CCN(C)CC3)c2F)nn2c(C#N)cnc12 [Example 386, methyl (3-((7-cyano-4-(ethylamino)imidazo[2,1-f][1,2,4]triazin-2-yl)amino)-4-fluoro-5-(4-methylpiperazin-1-yl)phenyl)carbamate]
  IC50: 5.79 nM

## COC(=O)N[C@H]1CCN(c2cc(C(N)=O)cc(Nc3nc(NC4CC4)c4ncc(C#N)n4n3)c2Cl)C[C@@H]1O [Example 388, methyl ((3S,4S)-1-(5-carbamoyl-2-chloro-3-((7-cyano-4-(cyclopropylamino)imidazo[2,1-f][1,2,4]triazin-2-yl)amino)phenyl)-3-hydroxypiperidin-4-yl)carbamate]
  IC50: 5.13 nM

## C[C@@H](O)Cn1nc(C#N)c2cc(Nc3nc(NC4CC4)c4ncc(C#N)n4n3)ccc21 [Example 393, (R)-2-((3-cyano-1-(2-hydroxypropyl)-1H-indazol-5-yl)amino)-4-(cyclopropylamino)imidazo[2,1-f][1,2,4]triazine-7-carbonitrile, HCl]
  IC50: 0.43 nM

## COC(=O)Nc1cc(Nc2nc(NC3CC3)c3ncc(C#N)n3n2)c(Cl)c(C2CCN(C)CC2)c1 [Example 397, Methyl-4-chloro-3-(7-cyano-4-(cyclopropylamino)imidazo[1,2-f][1,2,4]triazin-2-ylamino)-5-(1-methylpiperidin-4-yl)phenylcarbamate]
  IC50: 1.8 nM

## CCNc1nc(Nc2cc(NC(=O)OC)cc(C3CCN(C)CC3)c2Cl)nn2c(C#N)cnc12 [Example 398, methyl (4-chloro-3-((7-cyano-4-(ethylamino)imidazo[2,1-f][1,2,4]triazin-2-yl)amino)-5-(1-methylpiperidin-4-yl)phenyl)carbamate]
  IC50: 3.3 nM

## N#Cc1cc(C=O)c(Cl)c(Nc2nc(NC3CC3)c3ncc(C#N)n3n2)c1 [Example 400, 2-((2-chloro-5-cyano-3-formylphenyl)amino)-4-(cyclopropylamino)imidazo[2,1-f][1,2,4]triazine-7-carbonitrile]
  IC50: 0.49 nM

## CS(=O)(=O)N1CCN(Cc2cc(C#N)cc(Nc3nc(NC4CC4)c4ncc(C#N)n4n3)c2Cl)CC1 [Example 401, 2-((2-chloro-5-cyano-3-((4-(methylsulfonyl)piperazin-1-yl)methyl)phenyl)amino)-4-(cyclopropylamino)imidazo[2,1-f][1,2,4]triazine-7-carbonitrile]
  IC50: 0.38 nM

## N#Cc1cc(CN2CCN(C3COC3)CC2)c(Cl)c(Nc2nc(NC3CC3)c3ncc(C#N)n3n2)c1 [Example 403, 2-((2-chloro-5-cyano-3-((4-(oxetan-3-yl)piperazin-1-yl)methyl)phenyl)amino)-4-(cyclopropylamino)imidazo[2,1-f][1,2,4]triazine-7-carbonitrile HCl salt]
  IC50: 0.69 nM

## N#Cc1cc(CN2CCOCC2)c(Cl)c(Nc2nc(NC3CC3)c3ncc(C#N)n3n2)c1 [Example 404, 2-((2-chloro-5-cyano-3-(morpholinomethyl)phenyl)amino)-4-(cyclopropylamino)imidazo[2,1-f][1,2,4]triazine-7-carbonitrile]
  IC50: 0.54 nM

## CN1CCN(C2CN(c3cc(OC(F)F)cc(Nc4nc(NC5CC5)c5ncc(C#N)n5n4)c3Cl)C2)CC1 [Example 405, 2-((2-chloro-5-(difluoromethoxy)-3-(3-(4-methylpiperazin-1-yl)azetidin-1-yl)phenyl)amino)-4-(cyclopropylamino)imidazo[2,1-f][1,2,4]triazine-7-carbonitrile]
  IC50: 0.48 nM

## N#Cc1cnc2c(NC3CC3)nc(Nc3cc(OC(F)F)cc(N4CCOCC4)c3Cl)nn12 [Example 406, 2-(2-chloro-5-(difluoromethoxy)-3-morpholinophenylamino)-4-(cyclopropylamino)imidazo[1,2-f][1,2,4]triazine-7-carbonitrile]
  IC50: 2.12 nM

## N#Cc1cnc2c(NC3CC3)nc(Nc3cc(C(F)F)cc(C4CCN(C5COC5)CC4)c3Cl)nn12 [Example 407, 2-((2-chloro-5-(difluoromethyl)-3-(1-(3-oxetanyl)-4-piperidinyl)phenyl)amino)-4-(cyclopropylamino)imidazo[2,1-f][1,2,4]triazine-7-carbonitrile]
  IC50: 1.76 nM

## N#Cc1cc(Nc2nc(NC3CC3)c3ncc(C#N)n3n2)c(Cl)cc1NC1CCNCC1 [Example 410, 2-((2-chloro-5-cyano-4-(piperidin-4-ylamino)phenyl)amino)-4-(cyclopropylamino)imidazo[2,1-f][1,2,4]triazine-7-carbonitrile]
  IC50: 0.68 nM

## N#Cc1cc(Nc2nc(NC3CC3)c3ncc(C#N)n3n2)c(Cl)cc1NC1CCN(C2COC2)CC1 [Example 411, 2-((2-chloro-5-cyano-4-((1-(oxetan-3-yl)piperidin-4-yl)amino)phenyl)amino)-4-(cyclopropylamino)imidazo[2,1-f][1,2,4]triazine-7-carbonitrile]
  IC50: 0.76 nM
